ChEMBL document CHEMBL3769303, “Discovery of membrane active benzimidazole quinolones-based topoisomerase inhibitors as potential DNA-binding antimicrobial agents” (Eur J Med Chem, 2016)
Values after ≈ are worked out from the molar mass of the structure shown.

How the values were obtained:
Format in all cases: functional
Shigella dysenteriae = assay: Antibacterial activity against Shigella dysenteriae by micro broth dilution method
Staphylococcus aureus [1] = assay: Antibacterial activity against methicillin-resistant Staphylococcus aureus N315 by micro broth dilution method
Staphylococcus aureus [2] = assay: Antibacterial activity against Staphylococcus aureus ATCC 25923 by micro broth dilution method
Micrococcus luteus = assay: Antibacterial activity against Micrococcus luteus ATCC 4698 by micro broth dilution method; conditions: NCTC 2665
Bacillus spizizenii = assay: Antibacterial activity against Bacillus subtilis ATCC 6633 by micro broth dilution method
Escherichia coli [3] = assay: Antibacterial activity against Escherichia coli DH52 by micro broth dilution method
Escherichia coli [4] = assay: Antibacterial activity against Escherichia coli JM109 by micro broth dilution method
Pseudomonas aeruginosa = assay: Antibacterial activity against Pseudomonas aeruginosa ATCC 27853 by micro broth dilution method
[5] = Antibacterial activity against Bacillus proteus ATCC 13315 by micro broth dilution method
Salmonella enterica = assay: Antibacterial activity against Salmonella enterica ATCC 14028 by micro broth dilution method
[6] = Antifungal activity against Candida mycoderma ATCC 9888 after 24 hrs by micro broth dilution method; conditions: Candida vini
Cyberlindnera jadinii = assay: Antifungal activity against Candida utilis ATCC 9950 after 24 hrs by micro broth dilution method; conditions: Williopsis jadinii, ATCC 9950, 24 h
Aspergillus flavus = assay: Antifungal activity against Aspergillus flavus ATCC 204304 after 24 hrs by micro broth dilution method; conditions: ATCC 204304, 24 h
Saccharomyces cerevisiae = assay: Antifungal activity against Saccharomyces cerevisiae ATCC 9763 after 24 hrs by micro broth dilution method; conditions: ATCC 9763, 24 h
Candida albicans = assay: Antifungal activity against Candida albicans ATCC 10231 after 24 hrs by micro broth dilution method; conditions: ATCC 10231, 24 h

Structure (SMILES)	MIC (Shigella dysenteriae)	MIC (Staphylococcus aureus [1])	MIC (Staphylococcus aureus [2])	MIC (Micrococcus luteus)	MIC (Bacillus spizizenii)	MIC (Escherichia coli [3])	MIC (Escherichia coli [4])	MIC (Pseudomonas aeruginosa)	MIC [5]	MIC (Salmonella enterica)	MIC80 [6]	MIC80 (Cyberlindnera jadinii)	MIC80 (Aspergillus flavus)	MIC80 (Saccharomyces cerevisiae)	MIC80 (Candida albicans)
COC(=O)c1cn(C2CC2)c2cc(N3CCN(/C=N\c4nc5ccccc5[nH]4)CC3)c(F)cc2c1=O	8 µg/mL (≈ 16.4 µM)	64 µg/mL (≈ 131 µM)	32 µg/mL (≈ 65.5 µM)	4 µg/mL (≈ 8.19 µM)	2 µg/mL (≈ 4.09 µM)	8 µg/mL (≈ 16.4 µM)	8 µg/mL (≈ 16.4 µM)	2 µg/mL (≈ 4.09 µM)	4 µg/mL (≈ 8.19 µM)	4 µg/mL (≈ 8.19 µM)	16 µg/mL (≈ 32.8 µM)	8 µg/mL (≈ 16.4 µM)	4 µg/mL (≈ 8.19 µM)	2 µg/mL (≈ 4.09 µM)	32 µg/mL (≈ 65.5 µM)
CCCCCCCCCCn1c(CN2CCN(c3cc4c(cc3F)c(=O)c(C(=O)O)cn4CC)CC2)nc2ccccc21	8 µg/mL (≈ 13.6 µM)	8 µg/mL (≈ 13.6 µM)	32 µg/mL (≈ 54.3 µM)	16 µg/mL (≈ 27.1 µM)	4 µg/mL (≈ 6.78 µM)	0.5 µg/mL (≈ 0.848 µM)	32 µg/mL (≈ 54.3 µM)	4 µg/mL (≈ 6.78 µM)	8 µg/mL (≈ 13.6 µM)	8 µg/mL (≈ 13.6 µM)	8 µg/mL (≈ 13.6 µM)	4 µg/mL (≈ 6.78 µM)	4 µg/mL (≈ 6.78 µM)	4 µg/mL (≈ 6.78 µM)	16 µg/mL (≈ 27.1 µM)
CCn1cc(C(=O)O)c(=O)c2cc(F)c(N3CCN(Cc4nc5ccc(Br)cc5[nH]4)CC3)cc21	16 µg/mL (≈ 30.3 µM)	32 µg/mL (≈ 60.6 µM)	64 µg/mL (≈ 121 µM)	2 µg/mL (≈ 3.79 µM)	8 µg/mL (≈ 15.1 µM)	16 µg/mL (≈ 30.3 µM)	16 µg/mL (≈ 30.3 µM)	2 µg/mL (≈ 3.79 µM)	4 µg/mL (≈ 7.57 µM)	8 µg/mL (≈ 15.1 µM)	32 µg/mL (≈ 60.6 µM)	16 µg/mL (≈ 30.3 µM)	4 µg/mL (≈ 7.57 µM)	16 µg/mL (≈ 30.3 µM)	64 µg/mL (≈ 121 µM)
CCn1cc(C(=O)O)c(=O)c2cc(F)c(N3CCN(Cc4nc5ccccc5n4Cc4cccc(F)c4)CC3)cc21	1 µg/mL (≈ 1.79 µM)	32 µg/mL (≈ 57.4 µM)	128 µg/mL (≈ 230 µM)	64 µg/mL (≈ 115 µM)	128 µg/mL (≈ 230 µM)	128 µg/mL (≈ 230 µM)	128 µg/mL (≈ 230 µM)	8 µg/mL (≈ 14.3 µM)	4 µg/mL (≈ 7.17 µM)	8 µg/mL (≈ 14.3 µM)	64 µg/mL (≈ 115 µM)	32 µg/mL (≈ 57.4 µM)	2 µg/mL (≈ 3.59 µM)	2 µg/mL (≈ 3.59 µM)	64 µg/mL (≈ 115 µM)
O=C(O)c1cn(C2CC2)c2cc(N3CCN(CCc4nc5ccccc5[nH]4)CC3)c(F)cc2c1=O	0.5 µg/mL (≈ 1.05 µM)	4 µg/mL (≈ 8.41 µM)	4 µg/mL (≈ 8.41 µM)	1 µg/mL (≈ 2.1 µM)	128 µg/mL (≈ 269 µM)	4 µg/mL (≈ 8.41 µM)	2 µg/mL (≈ 4.21 µM)	0.5 µg/mL (≈ 1.05 µM)	2 µg/mL (≈ 4.21 µM)	1 µg/mL (≈ 2.1 µM)	2 µg/mL (≈ 4.21 µM)	4 µg/mL (≈ 8.41 µM)	1 µg/mL (≈ 2.1 µM)	1 µg/mL (≈ 2.1 µM)	2 µg/mL (≈ 4.21 µM)
O=C(O)c1cn(C2CC2)c2cc(N3CCN(Cc4nc5ccccc5n4Cc4cccc(F)c4)CC3)c(F)cc2c1=O	256 µg/mL (≈ 449 µM)	8 µg/mL (≈ 14 µM)	256 µg/mL (≈ 449 µM)	64 µg/mL (≈ 112 µM)	32 µg/mL (≈ 56.2 µM)	256 µg/mL (≈ 449 µM)	256 µg/mL (≈ 449 µM)	16 µg/mL (≈ 28.1 µM)	128 µg/mL (≈ 225 µM)	4 µg/mL (≈ 7.02 µM)	64 µg/mL (≈ 112 µM)	256 µg/mL (≈ 449 µM)	16 µg/mL (≈ 28.1 µM)	128 µg/mL (≈ 225 µM)	64 µg/mL (≈ 112 µM)
CCn1cc(C(=O)OC)c(=O)c2cc(F)c(N3CCN(/C=N\c4nc5ccccc5[nH]4)CC3)cc21	64 µg/mL (≈ 134 µM)	128 µg/mL (≈ 269 µM)	64 µg/mL (≈ 134 µM)	32 µg/mL (≈ 67.2 µM)	4 µg/mL (≈ 8.39 µM)	32 µg/mL (≈ 67.2 µM)	64 µg/mL (≈ 134 µM)	8 µg/mL (≈ 16.8 µM)	32 µg/mL (≈ 67.2 µM)	16 µg/mL (≈ 33.6 µM)	128 µg/mL (≈ 269 µM)	64 µg/mL (≈ 134 µM)	64 µg/mL (≈ 134 µM)	32 µg/mL (≈ 67.2 µM)	64 µg/mL (≈ 134 µM)
CCn1cc(C(=O)O)c(=O)c2cc(F)c(N3CCN(Cc4nc5ccc([N+](=O)[O-])cc5[nH]4)CC3)cc21	4 µg/mL (≈ 8.09 µM)	8 µg/mL (≈ 16.2 µM)	16 µg/mL (≈ 32.4 µM)	1 µg/mL (≈ 2.02 µM)	8 µg/mL (≈ 16.2 µM)	8 µg/mL (≈ 16.2 µM)	32 µg/mL (≈ 64.7 µM)	2 µg/mL (≈ 4.04 µM)	2 µg/mL (≈ 4.04 µM)	4 µg/mL (≈ 8.09 µM)	8 µg/mL (≈ 16.2 µM)	8 µg/mL (≈ 16.2 µM)	2 µg/mL (≈ 4.04 µM)	16 µg/mL (≈ 32.4 µM)	4 µg/mL (≈ 8.09 µM)
CCn1cc(C(=O)O)c(=O)c2cc(F)c(N3CCN(Cc4nc5ccccc5[nH]4)CC3)cc21	2 µg/mL (≈ 4.45 µM)	1 µg/mL (≈ 2.22 µM)	2 µg/mL (≈ 4.45 µM)	1 µg/mL (≈ 2.22 µM)	1 µg/mL (≈ 2.22 µM)	0.5 µg/mL (≈ 1.11 µM)	4 µg/mL (≈ 8.9 µM)	1 µg/mL (≈ 2.22 µM)	0.5 µg/mL (≈ 1.11 µM)	0.5 µg/mL (≈ 1.11 µM)	1 µg/mL (≈ 2.22 µM)	0.5 µg/mL (≈ 1.11 µM)	0.5 µg/mL (≈ 1.11 µM)	0.5 µg/mL (≈ 1.11 µM)	0.5 µg/mL (≈ 1.11 µM)
O=C(O)c1cn(C2CC2)c2cc(N3CCN(Cc4nc5ccc(Cl)cc5[nH]4)CC3)c(F)cc2c1=O	0.5 µg/mL (≈ 1.01 µM)	0.5 µg/mL (≈ 1.01 µM)	0.5 µg/mL (≈ 1.01 µM)	0.25 µg/mL (≈ 0.504 µM)	0.5 µg/mL (≈ 1.01 µM)	0.5 µg/mL (≈ 1.01 µM)	0.5 µg/mL (≈ 1.01 µM)	0.5 µg/mL (≈ 1.01 µM)	0.5 µg/mL (≈ 1.01 µM)	0.5 µg/mL (≈ 1.01 µM)	0.5 µg/mL (≈ 1.01 µM)	0.5 µg/mL (≈ 1.01 µM)	0.5 µg/mL (≈ 1.01 µM)	0.25 µg/mL (≈ 0.504 µM)	0.5 µg/mL (≈ 1.01 µM)
